# Data: ChEMBL document CHEMBL1132849, “Amidinohydrazones as guanidine bioisosteres: application to a new class of potent, selective and orally bioavailable, non-amide-based small-molecule thrombin inhibitors” (Bioorg Med Chem Lett, 2000)
# Where “and” joins values, the source holds several entries; their conditions need not be identical. Equal entries are not always repeated.
# Assays:
# Prothrombin = Prothrombin (Homo sapiens, UniProt P00734); assay: Inhibitory constant against human alpha thrombin
# [1] = Oral bioavailability in dog; format: ADME, organism-based, Canis lupus familiaris; conditions: in vivo
# [2] = pKa was evaluated; format: physicochemical
# [3] = The compound was tested for time taken to decrease, half of its initial concentration in dog plasma.; format: ADME, organism-based, Canis lupus familiaris
# [4] = The compound was tested for clearance in dog plasma.; format: ADME, organism-based, Canis lupus familiaris
# [5] = The compound was tested for maximum concentration ( Cmax ) in dog plasma.; format: ADME, organism-based, Canis lupus familiaris
# Canis familiaris [6] = species: Canis familiaris; assay: Vss was determined; format: ADME, organism-based, Canis lupus familiaris; conditions: dog, in vivo
# Canis familiaris [7] = assay: Time at which maximal (4 fold increase) prolong clotting time was observed after peroral administration of compound (30 mg/kg); format: functional, Canis lupus familiaris
# Canis familiaris [8] = assay: Anticoagulation (1.2 fold increase) after peroral administration of compound (30 mg/kg); format: functional, Canis lupus familiaris
# Canis familiaris [9] = assay: Anticoagulation (1.6 fold increase) after peroral administration of compound (30 mg/kg); format: functional, Canis lupus familiaris
# [10] = Percent oral bioavailability of perorally administered compound (30 mg/kg) was tested; format: ADME, organism-based; conditions: in vivo, read-out: Bioavailabiility
# [11] = Partition coefficient ( LogP) of the compound; format: physicochemical; conditions: octanol/water
# Canis familiaris [12] = species: Canis familiaris; assay: Vss in dog; format: ADME, organism-based, Canis lupus familiaris; conditions: in vivo
# [13] = Dose at which bioavailability of intravenously administered compound was tested in rabbit; format: ADME, organism-based, Oryctolagus cuniculus; conditions: in vivo, iv
# [14] = Dose at which bioavailability of perorally administered compound was tested in rabbit; format: ADME, organism-based, Oryctolagus cuniculus; conditions: in vivo, po
# [15] = The compound was tested for its bioavailability in rabbit (by oral dosage).; format: ADME, organism-based, Oryctolagus cuniculus; conditions: in vivo
# Canis familiaris [16] = species: Canis familiaris; assay: The compound was tested for clotting time thrombin(TCT); format: functional, Canis lupus familiaris
# Canis familiaris [17] = assay: Time at which maximal (1.6 fold increase) prolong clotting time was observed after peroral administration of compound (30 mg/kg) in dog; format: functional, Canis lupus familiaris
# Oryctolagus cuniculus [18] = assay: Prolongation of thrombin clotting time (to 1.9x over control), 60 min after peroral administration (30 mg/kg); format: functional
# Oryctolagus cuniculus [19] = assay: Prolongation of thrombin clotting time (to 1.9x over control), after peroral administration (30 mg/kg); format: functional
# [20] = Percent oral bioavailability of intravenously administered compound (6 mg/kg) was tested in dog; format: ADME, organism-based, Canis lupus familiaris; conditions: in vivo, intravenous, read-out: Bioavailabiility
compound,measurement,setting,value
COc1cc(CCC/C=N/N=C(N)N)cc(OS(=O)(=O)c2ccccc2Cl)c1,Ki,Prothrombin,990 nM
Cc1cc(OCC/C=N/N=C(N)N)cc(OS(=O)(=O)c2ccccc2S(C)(=O)=O)c1,Ki,Prothrombin,20 nM
Cc1cc(OCC/C=N/N=C(N)N)cc(OS(=O)(=O)c2cccc(C)c2)c1,Ki,Prothrombin,6 nM
COc1ccccc1S(=O)(=O)Oc1cc(C)cc(OCC/C=N/N=C(N)N)c1,Ki,Prothrombin,11 nM
Cc1cc(OCC/C=N/N=C(N)N)cc(OS(=O)(=O)c2cccnc2)c1,Ki,Prothrombin,36 nM
Cc1cc(OCC/C=N/N=C(N)N)cc(OS(=O)(=O)c2cccc(Cl)c2Cl)c1,Ki,Prothrombin,9.4 nM
Cc1cc(OCC/C=N/N=C(N)N)cc(OS(=O)(=O)c2ccccc2C#N)c1,bioavailability,[1],21%
same,pKa,[2],8.84
same,half-life,[3],19 h
same,clearance,[4],79 mL/min/kg
same,Cmax,[5],900 nM
same,Vss,Canis familiaris [6],23 k
same,Time,Canis familiaris [7],1 h
same,Time,Canis familiaris [8],24 h
same,Time,Canis familiaris [9],8 h
same,bioavailability,[10],21%
same,logP,[11],2.11
Cc1cc(OCC/C=N/N=C(N)N)cc(OS(=O)(=O)c2ccccc2Cl)c1,bioavailability,[1],23%
same,pKa,[2],8.71
same,half-life,[3],21 h
same,clearance,[4],39 mL/min/kg
same,Cmax,[5],1800 nM
same,Vss,Canis familiaris [12],3.5 k
same,Dose,[13],6 mg/kg
same,Dose,[14],30 mg/kg
same,bioavailability,[15],60%
same,TCT,Canis familiaris [16],34 s and 21 s
same,Time,Canis familiaris [17],2 h
same,TCT,Oryctolagus cuniculus [18],50 s
same,TCT,Oryctolagus cuniculus [19],26 s
same,bioavailability,[20],23%
same,logP,[11],2.34
COc1ccccc1S(=O)(=O)Oc1cc(C)cc(OC/C=N/N=C(N)N)c1,Ki,Prothrombin,> 1000 nM
Cc1cc(OCC2(/C=N/N=C(N)N)CC2)cc(OS(=O)(=O)c2ccccc2C#N)c1,Ki,Prothrombin,40 nM
Cc1cc(OCC/C=N/N=C(N)N)cc(OS(=O)(=O)c2cccc3ccccc23)c1,Ki,Prothrombin,44 nM
Cc1cc(OCC/C=N/N=C(N)N)cc(OCc2ccccc2C(F)(F)F)c1,Ki,Prothrombin,420 nM
Cc1cc(OCC/C=N/N=C(N)N)cc(OS(=O)(=O)c2ccccc2OC(F)(F)F)c1,Ki,Prothrombin,11 nM
